The text below walks through data of BindingDB's records for doi:10.1074/jbc.M114.556381 (Central South University, 2014).

The target in the experiment is Prokineticin receptor 2 (Homo sapiens, UniProt Q8NFJ6). Briefly: Calcium Mobilization Assay. The conditions noted are these: pH 7.5; 37 °C. As for the experimental part: Briefly, Chinese hamster ovary cells stably expressing the photoprotein aequorin were transiently transfected with WT or respective mutant PKR2-expressing plasmids. Two days after transfection, the cells were charged in Opti-MEM (Invitrogen) containing 8 μM coelenterazine cp (Invitrogen) at 37 °C for 2 h. Cells were detached by brief trypsinization and maintained in assay buffer (Hanks' balanced salt solution plus 10 mM HEPES, pH 7.5, and 0.1% bovine serum albumin) at approximately 5 × 10^5 cells/ml. Luminescence measurements were made using a Sirius Single Tube Luminometer (Berthold Detection Systems GmbH, Pforzheim, Germany). PK2 was serially diluted in assay buffer and mixed with cells. The luminescence was monitored for 35 s (peak 1), then 100 μl of 1% Triton X-100 was injected to lyse the cells, and the luminescence was monitored continuously for another 20 s (peak 2). The area under the curve of the peak 1 was divided by the total area under the curve of peaks 1 and 2, and the maximal responses from WT receptors were normalized to 100.
Chain of Prokineticin receptor 2 (Q8NFJ6 whole entry): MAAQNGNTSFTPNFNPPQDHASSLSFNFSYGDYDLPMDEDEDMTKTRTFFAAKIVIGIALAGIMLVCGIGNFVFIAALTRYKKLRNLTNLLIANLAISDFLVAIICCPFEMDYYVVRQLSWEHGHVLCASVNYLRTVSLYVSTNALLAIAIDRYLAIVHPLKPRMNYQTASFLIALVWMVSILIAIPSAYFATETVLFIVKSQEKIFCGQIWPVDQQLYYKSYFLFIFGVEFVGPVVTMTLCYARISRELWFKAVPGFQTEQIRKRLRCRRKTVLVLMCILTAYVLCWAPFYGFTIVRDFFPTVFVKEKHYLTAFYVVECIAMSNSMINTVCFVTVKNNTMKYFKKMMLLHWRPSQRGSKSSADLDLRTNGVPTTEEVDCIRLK

Molecules are shown by their SMILES.

In the case of `CC(C)CN(Cc1cc(Cl)c2c(c1)OCCCO2)C(=O)C1CCN(Cc2ccccc2)C1` (racemic) [US8722896, (+/-)-1-Benzyl-N-(9-chloro-3,4-dihydro-2H-1,5-benzodioxepin-7-ylmethyl)-N-isobutylpyrrolidine-3-carboxamide], the IC50 was found to be 102 nM.
